Earlier results as cited in US20020177547A1, “Pharmaceutical compositions for treating or preventing cancer” (priority 2001, published 2002).

Key:
[1] = tested on: hgp100 TILs
[2] = tested on: peripheral blood lymphocytes (PBL) of melanoma patients; conditions: repeated in vitro stimulation of PBL

Q: With ITDQVPFSV [peptide 2] as the sequence, how does the “recognition by TILs” value [1] read?
A: immunodominant

Q: Which “recognition by TILs” value [1] does the source give for KTWGQYWQV [peptide 1] here?
A: immunodominant

Q: With “VLYRYGSFSV (listed as Homo sapiens) [Peptide 3]” as the sequence, how does the “induction of melanoma-reactive CTLs” value [2] read?
A: able to induce melanoma-reactive CTLs
